Measured values published in ChEMBL document CHEMBL3797052 (Eur J Med Chem, 2016).

system: not listed separately; assay: Antiproliferative activity against human BT549 cells assessed as cell growth at 10^-8 M after 48 hrs by sulforhodamine B assay; type: functional; conditions: BT-549, 48 h, read-out: Activity

SMILES | growth at 0.01 µM
CNC(=O)c1cc(Oc2ccc3nc(NC(=O)Nc4cc(C(F)(F)F)cc(C(F)(F)F)c4)sc3c2)ccn1 | 89%

system: not listed separately; assay: Antiproliferative activity against human RPMI8226 cells assessed as cell growth at 10^-7 M after 48 hrs by sulforhodamine B assay; type: functional; conditions: RPMI-8226, 48 h, read-out: Activity

SMILES | growth at 0.1 µM
CNC(=O)c1cc(Oc2ccc3nc(NC(=O)Nc4cc(C(F)(F)F)cc(C(F)(F)F)c4)sc3c2)ccn1 | 108%

system: not listed separately; assay: Antiproliferative activity against human COLO205 cells assessed as cell growth at 10^-7 M after 48 hrs by sulforhodamine B assay; type: functional; conditions: COLO 205, 48 h, read-out: Activity

SMILES | growth at 0.1 µM
CNC(=O)c1cc(Oc2ccc3nc(NC(=O)Nc4cc(C(F)(F)F)cc(C(F)(F)F)c4)sc3c2)ccn1 | 96%

system: not listed separately; assay: Antiproliferative activity against human SF268 cells assessed as cell growth at 10^-7 M after 48 hrs by sulforhodamine B assay; type: functional; conditions: SF-268, 48 h, read-out: Activity

SMILES | growth at 0.1 µM
CNC(=O)c1cc(Oc2ccc3nc(NC(=O)Nc4cc(C(F)(F)F)cc(C(F)(F)F)c4)sc3c2)ccn1 | 90%

system: not listed separately; assay: Antiproliferative activity against human SF295 cells assessed as cell growth at 10^-7 M after 48 hrs by sulforhodamine B assay; type: functional; conditions: SF-295, 48 h, read-out: Activity

SMILES | growth at 0.1 µM
CNC(=O)c1cc(Oc2ccc3nc(NC(=O)Nc4cc(C(F)(F)F)cc(C(F)(F)F)c4)sc3c2)ccn1 | 92%

system: not listed separately; assay: Antiproliferative activity against human SNB19 cells assessed as cell growth at 10^-7 M after 48 hrs by sulforhodamine B assay; type: functional; conditions: SNB-19, 48 h, read-out: Activity

SMILES | growth at 0.1 µM
CNC(=O)c1cc(Oc2ccc3nc(NC(=O)Nc4cc(C(F)(F)F)cc(C(F)(F)F)c4)sc3c2)ccn1 | 111%

system: not listed separately; assay: Antiproliferative activity against human SNB75 cells assessed as cell growth at 10^-7 M after 48 hrs by sulforhodamine B assay; type: functional; conditions: SNB-75, 48 h, read-out: Activity

SMILES | growth at 0.1 µM
CNC(=O)c1cc(Oc2ccc3nc(NC(=O)Nc4cc(C(F)(F)F)cc(C(F)(F)F)c4)sc3c2)ccn1 | 82%

system: not listed separately; assay: Antiproliferative activity against human BT549 cells assessed as cell growth at 10^-4 M after 48 hrs by sulforhodamine B assay; type: functional; conditions: BT-549, 48 h, read-out: Activity

SMILES | growth at 100 µM
CNC(=O)c1cc(Oc2ccc3nc(NC(=O)Nc4cc(C(F)(F)F)cc(C(F)(F)F)c4)sc3c2)ccn1 | -63%

system: not listed separately; assay: Antiproliferative activity against human UACC62 cells assessed as growth inhibition after 48 hrs by sulforhodamine B assay; type: functional; conditions: UACC-62, 48 h

SMILES | GI50 | TGI
CNC(=O)c1cc(Oc2ccc3nc(NC(=O)Nc4cc(C(F)(F)F)cc(C(F)(F)F)c4)sc3c2)ccn1 | 583 nM | 2100 nM

same assay, conditions: UACC-62, 48 h, read-out: LC50 (the source's name)

SMILES | CC50
CNC(=O)c1cc(Oc2ccc3nc(NC(=O)Nc4cc(C(F)(F)F)cc(C(F)(F)F)c4)sc3c2)ccn1 | 5770 nM

system: SK-MEL-5; assay: Antiproliferative activity against human SK-MEL-5 cells assessed as growth inhibition after 48 hrs by sulforhodamine B assay; type: functional; conditions: SK-MEL-5, 48 h

SMILES | GI50 | TGI
CNC(=O)c1cc(Oc2ccc3nc(NC(=O)Nc4cc(C(F)(F)F)cc(C(F)(F)F)c4)sc3c2)ccn1 | 593 nM | 2090 nM

same assay, conditions: SK-MEL-5, 48 h, read-out: LC50 (the source's name)

SMILES | CC50
CNC(=O)c1cc(Oc2ccc3nc(NC(=O)Nc4cc(C(F)(F)F)cc(C(F)(F)F)c4)sc3c2)ccn1 | 5870 nM

system: M14; assay: Antiproliferative activity against human M14 cells assessed as growth inhibition after 48 hrs by sulforhodamine B assay; type: functional; conditions: M14, 48 h

SMILES | GI50 | TGI
CNC(=O)c1cc(Oc2ccc3nc(NC(=O)Nc4cc(C(F)(F)F)cc(C(F)(F)F)c4)sc3c2)ccn1 | 1500 nM | 3220 nM

same assay, conditions: M14, 48 h, read-out: LC50 (the source's name)

SMILES | CC50
CNC(=O)c1cc(Oc2ccc3nc(NC(=O)Nc4cc(C(F)(F)F)cc(C(F)(F)F)c4)sc3c2)ccn1 | 6900 nM

system: not listed separately; assay: Antiproliferative activity against human LOXIMVI cells assessed as cell growth at 10^-7 M after 48 hrs by sulforhodamine B assay; type: functional; conditions: LOX IMVI, read-out: Activity

SMILES | growth at 0.1 µM
CNC(=O)c1cc(Oc2ccc3nc(NC(=O)Nc4cc(C(F)(F)F)cc(C(F)(F)F)c4)sc3c2)ccn1 | 93%

system: 786-0; assay: Antiproliferative activity against human 786-0 cells assessed as cell growth at 10^-7 M after 48 hrs by sulforhodamine B assay; type: functional; conditions: 786-0, 48 h, read-out: Activity

SMILES | growth at 0.1 µM
CNC(=O)c1cc(Oc2ccc3nc(NC(=O)Nc4cc(C(F)(F)F)cc(C(F)(F)F)c4)sc3c2)ccn1 | 99%

system: not listed separately; assay: Antiproliferative activity against human TK10 cells assessed as cell growth at 10^-7 M after 48 hrs by sulforhodamine B assay; type: functional; conditions: TK-10, 48 h, read-out: Activity

SMILES | growth at 0.1 µM
CNC(=O)c1cc(Oc2ccc3nc(NC(=O)Nc4cc(C(F)(F)F)cc(C(F)(F)F)c4)sc3c2)ccn1 | 109%

system: not listed separately; assay: Antiproliferative activity against human HCT116 cells assessed as growth inhibition after 48 hrs by sulforhodamine B assay; type: functional; conditions: HCT-116, 48 h

SMILES | GI50 | LC50 (concentration killing 50% of the starting cells) | TGI
CNC(=O)c1cc(Oc2ccc3nc(NC(=O)Nc4cc(C(F)(F)F)cc(C(F)(F)F)c4)sc3c2)ccn1 | 1120 nM | 5370 nM | 2460 nM

system: NCI-H322M; assay: Antiproliferative activity against human NCI-H322M cells assessed as growth inhibition after 48 hrs by sulforhodamine B assay; type: functional; conditions: not given

SMILES | GI50 | TGI
CNC(=O)c1cc(Oc2ccc3nc(NC(=O)Nc4cc(C(F)(F)F)cc(C(F)(F)F)c4)sc3c2)ccn1 | 1490 nM | 3650 nM

system: NCI-H23; assay: Antiproliferative activity against human NCI-H23 cells assessed as growth inhibition after 48 hrs by sulforhodamine B assay; type: functional; conditions: NCI-H23, 48 h

SMILES | GI50 | LC50 | TGI
CNC(=O)c1cc(Oc2ccc3nc(NC(=O)Nc4cc(C(F)(F)F)cc(C(F)(F)F)c4)sc3c2)ccn1 | 573 nM | 7990 nM | 2380 nM

system: not listed separately; assay: Antiproliferative activity against human HOP92 cells assessed as growth inhibition after 48 hrs by sulforhodamine B assay; type: functional; conditions: HOP-92, 48 h

SMILES | GI50 | LC50 | TGI
CNC(=O)c1cc(Oc2ccc3nc(NC(=O)Nc4cc(C(F)(F)F)cc(C(F)(F)F)c4)sc3c2)ccn1 | 301 nM | 5140 nM | 949 nM

target: hERG (KCNH2) (Homo sapiens, UniProt Q12809); assay: Inhibition of human ERG assessed as reduction in channel current at 100 uM by automated patch-clamp electrophysiology assay; conditions: not given
Sequence (Q12809 whole entry): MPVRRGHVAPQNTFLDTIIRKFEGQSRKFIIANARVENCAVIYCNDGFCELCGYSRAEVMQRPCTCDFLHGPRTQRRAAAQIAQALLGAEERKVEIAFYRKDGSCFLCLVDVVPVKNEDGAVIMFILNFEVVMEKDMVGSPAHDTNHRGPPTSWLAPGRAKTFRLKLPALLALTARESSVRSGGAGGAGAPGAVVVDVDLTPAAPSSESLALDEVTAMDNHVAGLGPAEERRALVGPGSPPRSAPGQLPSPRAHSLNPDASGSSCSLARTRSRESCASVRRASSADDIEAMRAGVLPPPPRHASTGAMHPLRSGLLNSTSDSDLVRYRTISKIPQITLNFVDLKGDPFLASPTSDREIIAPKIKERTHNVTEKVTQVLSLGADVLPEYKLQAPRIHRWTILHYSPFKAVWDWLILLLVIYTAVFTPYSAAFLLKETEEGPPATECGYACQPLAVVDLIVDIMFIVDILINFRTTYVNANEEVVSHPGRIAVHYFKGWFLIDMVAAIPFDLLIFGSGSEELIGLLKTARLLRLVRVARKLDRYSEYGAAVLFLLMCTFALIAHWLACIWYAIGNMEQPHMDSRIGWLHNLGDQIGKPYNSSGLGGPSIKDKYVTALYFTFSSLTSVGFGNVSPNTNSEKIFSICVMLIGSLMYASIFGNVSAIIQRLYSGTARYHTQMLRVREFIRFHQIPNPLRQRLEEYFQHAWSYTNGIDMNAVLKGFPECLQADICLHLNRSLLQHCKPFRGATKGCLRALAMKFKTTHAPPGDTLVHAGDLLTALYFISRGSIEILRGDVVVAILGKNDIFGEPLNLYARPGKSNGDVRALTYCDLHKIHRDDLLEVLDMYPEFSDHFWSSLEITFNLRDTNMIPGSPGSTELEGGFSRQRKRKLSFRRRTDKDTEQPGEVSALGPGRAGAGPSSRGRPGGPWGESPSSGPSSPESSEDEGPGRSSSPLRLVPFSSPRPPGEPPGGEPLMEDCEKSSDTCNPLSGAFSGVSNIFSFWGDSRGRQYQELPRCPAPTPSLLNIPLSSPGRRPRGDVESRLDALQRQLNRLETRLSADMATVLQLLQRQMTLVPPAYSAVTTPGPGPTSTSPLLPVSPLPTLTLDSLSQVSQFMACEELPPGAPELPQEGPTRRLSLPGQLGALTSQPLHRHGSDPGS

SMILES | inhibition at 100 µM
CNC(=O)c1cc(Oc2ccc3nc(NC(=O)Nc4cc(C(F)(F)F)cc(C(F)(F)F)c4)sc3c2)ccn1 | 30.2%

system: not listed separately; assay: Antiproliferative activity against human SW620 cells assessed as cell growth at […] M after 48 hrs by sulforhodamine B assay; type: functional; conditions: SW-620, 48 h, read-out: Activity

SMILES | growth at 0.01 µM
CNC(=O)c1cc(Oc2ccc3nc(NC(=O)Nc4cc(C(F)(F)F)cc(C(F)(F)F)c4)sc3c2)ccn1 | 102%

system: not listed separately; assay: Antiproliferative activity against human HOP92 cells assessed as cell growth at 10^-6 M after 48 hrs by sulforhodamine B assay; type: functional; conditions: HOP-92, 48 h, read-out: Activity

SMILES | growth at 1 µM
CNC(=O)c1cc(Oc2ccc3nc(NC(=O)Nc4cc(C(F)(F)F)cc(C(F)(F)F)c4)sc3c2)ccn1 | -2%

system: not listed separately; assay: Antiproliferative activity against human HCC2998 cells assessed as cell growth at 10^-6 M after 48 hrs by sulforhodamine B assay; type: functional; conditions: HCC 2998, 48 h, read-out: Activity

SMILES | growth at 1 µM
CNC(=O)c1cc(Oc2ccc3nc(NC(=O)Nc4cc(C(F)(F)F)cc(C(F)(F)F)c4)sc3c2)ccn1 | 66%

system: not listed separately; assay: Antiproliferative activity against human HOP92 cells assessed as cell growth at 10^-4 M after 48 hrs by sulforhodamine B assay; type: functional; conditions: HOP-92, 48 h, read-out: Activity

SMILES | growth at 100 µM
CNC(=O)c1cc(Oc2ccc3nc(NC(=O)Nc4cc(C(F)(F)F)cc(C(F)(F)F)c4)sc3c2)ccn1 | -77%

system: NCI-H23; assay: Antiproliferative activity against human NCI-H23 cells assessed as cell growth at 10^-4 M after 48 hrs by sulforhodamine B assay; type: functional; conditions: NCI-H23, 48 h, read-out: Activity

SMILES | growth at 100 µM
CNC(=O)c1cc(Oc2ccc3nc(NC(=O)Nc4cc(C(F)(F)F)cc(C(F)(F)F)c4)sc3c2)ccn1 | -52%

system: U-251; assay: Antiproliferative activity against human U251 cells assessed as cell growth at 10^-4 M after 48 hrs by sulforhodamine B assay; type: functional; conditions: U-251, 48 h, read-out: Activity

SMILES | growth at 100 µM
CNC(=O)c1cc(Oc2ccc3nc(NC(=O)Nc4cc(C(F)(F)F)cc(C(F)(F)F)c4)sc3c2)ccn1 | -100%

system: Malme-3M; assay: Antiproliferative activity against human MALME-3M cells assessed as cell growth at 10^-4 M after 48 hrs by sulforhodamine B assay; type: functional; conditions: read-out: Activity

SMILES | growth at 100 µM
CNC(=O)c1cc(Oc2ccc3nc(NC(=O)Nc4cc(C(F)(F)F)cc(C(F)(F)F)c4)sc3c2)ccn1 | -76%

system: SK-MEL-28; assay: Antiproliferative activity against human SK-MEL-28 cells assessed as cell growth at 10^-8 M after 48 hrs by sulforhodamine B assay; type: functional; conditions: SK-MEL-28, 48 h, read-out: Activity

SMILES | growth at 0.01 µM
CNC(=O)c1cc(Oc2ccc3nc(NC(=O)Nc4cc(C(F)(F)F)cc(C(F)(F)F)c4)sc3c2)ccn1 | 93%

system: MDA-MB-231; assay: Antiproliferative activity against human MDA-MB-231 cells assessed as cell growth at 10^-8 M after 48 hrs by sulforhodamine B assay; type: functional; conditions: MDA-MB-231, 48 h, read-out: Activity

SMILES | growth at 0.01 µM
CNC(=O)c1cc(Oc2ccc3nc(NC(=O)Nc4cc(C(F)(F)F)cc(C(F)(F)F)c4)sc3c2)ccn1 | 103%

system: not listed separately; assay: Antiproliferative activity against human Hs 578T cells assessed as cell growth at 10^-8 M after 48 hrs by sulforhodamine B assay; type: functional; conditions: read-out: Activity

SMILES | growth at 0.01 µM
CNC(=O)c1cc(Oc2ccc3nc(NC(=O)Nc4cc(C(F)(F)F)cc(C(F)(F)F)c4)sc3c2)ccn1 | 96%

system: not listed separately; assay: Antiproliferative activity against human UACC62 cells assessed as cell growth at 10^-6 M after 48 hrs by sulforhodamine B assay; type: functional; conditions: UACC-62, 48 h, read-out: Activity

SMILES | growth at 1 µM
CNC(=O)c1cc(Oc2ccc3nc(NC(=O)Nc4cc(C(F)(F)F)cc(C(F)(F)F)c4)sc3c2)ccn1 | 37%

system: not listed separately; assay: Antiproliferative activity against human Caki1 cells assessed as cell growth at 10^-6 M after 48 hrs by sulforhodamine B assay; type: functional; conditions: CAKI-1, 48 h, read-out: Activity

SMILES | growth at 1 µM
CNC(=O)c1cc(Oc2ccc3nc(NC(=O)Nc4cc(C(F)(F)F)cc(C(F)(F)F)c4)sc3c2)ccn1 | 58%

system: SN12C; assay: Antiproliferative activity against human SN12C cells assessed as cell growth at 10^-6 M after 48 hrs by sulforhodamine B assay; type: functional; conditions: read-out: Activity

SMILES | growth at 1 µM
CNC(=O)c1cc(Oc2ccc3nc(NC(=O)Nc4cc(C(F)(F)F)cc(C(F)(F)F)c4)sc3c2)ccn1 | 80%

system: SK-MEL-5; assay: Antiproliferative activity against human SK-MEL-5 cells assessed as cell growth at 10^-4 M after 48 hrs by sulforhodamine B assay; type: functional; conditions: SK-MEL-5, 48 h, read-out: Activity

SMILES | growth at 100 µM
CNC(=O)c1cc(Oc2ccc3nc(NC(=O)Nc4cc(C(F)(F)F)cc(C(F)(F)F)c4)sc3c2)ccn1 | -72%

system: not listed separately; assay: Antiproliferative activity against human OVCAR3 cells assessed as cell growth at 10^-4 M after 48 hrs by sulforhodamine B assay; type: functional; conditions: OVCAR-3, 48 h, read-out: Activity

SMILES | growth at 100 µM
CNC(=O)c1cc(Oc2ccc3nc(NC(=O)Nc4cc(C(F)(F)F)cc(C(F)(F)F)c4)sc3c2)ccn1 | -89%

system: not listed separately; assay: Antiproliferative activity against human OVCAR4 cells assessed as cell growth at 10^-4 M after 48 hrs by sulforhodamine B assay; type: functional; conditions: OVCAR-4, 48 h, read-out: Activity

SMILES | growth at 100 µM
CNC(=O)c1cc(Oc2ccc3nc(NC(=O)Nc4cc(C(F)(F)F)cc(C(F)(F)F)c4)sc3c2)ccn1 | -57%
